Measurements from ChEMBL document CHEMBL1153043, “Synthesis and evaluation of 1-(benzo[b]thiophen-2-yl)ethanone analogues as novel anti-osteoporosis agents acting on BMP-2 promotor” (Bioorg Med Chem Lett, 2009).

How the values were obtained:
[1] = Enhancement of BMP-2 expression in mouse MC3T3-E1 cells assessed as upregulation rate at 4 uM; format: functional, cell-based
Rattus norvegicus [2] = experiment: Antiosteoporotic activity in po dosed ovariectomized Sprague-Dawley rat assessed as average osteoid width administered for 90 days by bone histomorphometry; format: functional, organism-based
Rattus norvegicus [3] = experiment: Antiosteoporotic activity in ovariectomized Sprague-Dawley rat assessed as trabecula formation surface at 15 mg/kg/day, po for 90 days by bone histomorphometry; format: functional
Rattus norvegicus [4] = experiment: Toxicity in sham operated Sprague-Dawley rat assessed as effect on total bilirubin level at 150 mg/kg/day, po for 90 days; format: organism-based; set-up: route oral; conditions: in vivo, 2160 h
Rattus norvegicus [5] = experiment: Antiosteoporotic activity in ovariectomized Sprague-Dawley rat assessed as osteo cortex mineralization rate at 30 mg/kg/day, po for 90 days by bone histomorphometry; format: functional
Rattus norvegicus [6] = experiment: Toxicity in sham operated Sprague-Dawley rat assessed as effect on triglycerides level at 150 mg/kg/day, po for 90 days; format: organism-based; set-up: route oral; conditions: in vivo, 2160 h
Rattus norvegicus [7] = experiment: Antiosteoporotic activity in ovariectomized Sprague-Dawley rat assessed as trabecula resorption surface at 15 mg/kg/day, po for 90 days by bone histomorphometry; format: functional
Rattus norvegicus [8] = experiment: Antiosteoporotic activity in ovariectomized Sprague-Dawley rat assessed as mineral apposition rate at 7.5 mg/kg/day, po for 90 days by bone histomorphometry; format: functional
Rattus norvegicus [9] = experiment: Antiosteoporotic activity in ovariectomized Sprague-Dawley rat assessed as average osteoid width at 15 mg/kg/day, po for 90 days by bone histomorphometry; format: functional
Rattus norvegicus [10] = experiment: Toxicity in sham operated Sprague-Dawley rat assessed as effect on bone histomorphometric parameters at 150 mg/kg/day, po for 90 days; format: organism-based; set-up: route oral; conditions: in vivo, 2160 h
Rattus norvegicus [11] = experiment: Antiosteoporotic activity in ovariectomized Sprague-Dawley rat assessed as mineral apposition rate at 15 mg/kg/day, po for 90 days by bone histomorphometry; format: functional
Rattus norvegicus [12] = experiment: Toxicity in sham operated Sprague-Dawley rat assessed as effect on creatinine level at 150 mg/kg/day, po for 90 days; format: organism-based; set-up: route oral; conditions: in vivo, 2160 h
Rattus norvegicus [13] = experiment: Antiosteoporotic activity in ovariectomized Sprague-Dawley rat assessed as trabecula formation surface at 30 mg/kg/day, po for 90 days by bone histomorphometry; format: functional
Rattus norvegicus [14] = experiment: Toxicity in sham operated Sprague-Dawley rat assessed as effect on glucose level at 150 mg/kg/day, po for 90 days; format: organism-based; set-up: route oral; conditions: in vivo, 2160 h
Rattus norvegicus [15] = experiment: Toxicity in sham operated Sprague-Dawley rat assessed as effect on albumin level at 150 mg/kg/day, po for 90 days; format: organism-based; set-up: route oral; conditions: in vivo, 2160 h
Rattus norvegicus [16] = experiment: Toxicity in sham operated Sprague-Dawley rat assessed as effect on blood urea nitrogen level at 150 mg/kg/day, po for 90 days; format: organism-based; set-up: route oral; conditions: in vivo, 2160 h
[17] = Toxicity in ip dosed Kunming mouse; format: organism-based; conditions: in vivo
Rattus norvegicus [18] = experiment: Toxicity in sham operated Sprague-Dawley rat assessed as effect on calcium level at 150 mg/kg/day, po for 90 days; format: organism-based; set-up: route oral; conditions: in vivo, 2160 h
Rattus norvegicus [19] = experiment: Antiosteoporotic activity in ovariectomized Sprague-Dawley rat assessed as average osteoid width at 30 mg/kg/day, po for 90 days by bone histomorphometry; format: functional
Rattus norvegicus [20] = experiment: Toxicity in sham operated Sprague-Dawley rat assessed as effect on direct-high density lipoprotein level at 150 mg/kg/day, po for 90 days; format: organism-based; set-up: route oral; conditions: in vivo, 2160 h
Rattus norvegicus [21] = experiment: Antiosteoporotic activity in ovariectomized Sprague-Dawley rat assessed as trabecula resorption surface at 7.5 mg/kg/day, po for 90 days by bone histomorphometry; format: functional
Rattus norvegicus [22] = experiment: Antiosteoporotic activity in ovariectomized Sprague-Dawley rat assessed as trabecular bone volume at 30 mg/kg/day, po for 90 days by bone histomorphometry; format: functional, Trabecula
Rattus norvegicus [23] = experiment: Antiosteoporotic activity in ovariectomized Sprague-Dawley rat assessed as trabecula resorption surface at 30 mg/kg/day, po for 90 days by bone histomorphometry; format: functional
Rattus norvegicus [24] = experiment: Toxicity in sham operated Sprague-Dawley rat assessed as effect on direct-low density lipoprotein level at 150 mg/kg/day, po for 90 days; format: organism-based; set-up: route oral; conditions: in vivo, 2160 h
Rattus norvegicus [25] = experiment: Antiosteoporotic activity in ovariectomized Sprague-Dawley rat assessed as osteo cortex mineralization rate at 7.5 mg/kg/day, po for 90 days by bone histomorphometry; format: functional
Rattus norvegicus [26] = experiment: Antiosteoporotic activity in po dosed ovariectomized Sprague-Dawley rat assessed as trabecula resorption surface administered for 90 days by bone histomorphometry; format: functional, organism-based
Rattus norvegicus [27] = experiment: Antiosteoporotic activity in po dosed ovariectomized Sprague-Dawley rat assessed as trabecular bone volume administered for 90 days by bone histomorphometry; format: functional, organism-based; conditions: Trabecula
Rattus norvegicus [28] = experiment: Antiosteoporotic activity in ovariectomized Sprague-Dawley rat assessed as trabecular bone volume at 15 mg/kg/day, po for 90 days by bone histomorphometry; format: functional, Trabecula
[29] = Toxicity in po dosed Kunming mouse; format: organism-based; conditions: in vivo
Rattus norvegicus [30] = experiment: Toxicity in sham operated Sprague-Dawley rat assessed as effect on alkaline phosphatase level at 150 mg/kg/day, po for 90 days; format: organism-based; set-up: route oral; conditions: in vivo, 2160 h
Rattus norvegicus [31] = experiment: Toxicity in sham operated Sprague-Dawley rat assessed as effect on glutamine-oxaloacetic transaminase level at 150 mg/kg/day, po for 90 days; format: organism-based; set-up: route oral; conditions: in vivo, 2160 h
Rattus norvegicus [32] = experiment: Antiosteoporotic activity in po dosed ovariectomized Sprague-Dawley rat assessed as mineral apposition rate administered for 90 days by bone histomorphometry; format: functional, organism-based
Rattus norvegicus [33] = experiment: Antiosteoporotic activity in ovariectomized Sprague-Dawley rat assessed as trabecular bone volume at 7.5 mg/kg/day, po for 90 days by bone histomorphometry; format: functional, Trabecula
Rattus norvegicus [34] = experiment: Antiosteoporotic activity in ovariectomized Sprague-Dawley rat assessed as average osteoid width at 7.5 mg/kg/day, po for 90 days by bone histomorphometry; format: functional
Rattus norvegicus [35] = experiment: Antiosteoporotic activity in po dosed ovariectomized Sprague-Dawley rat assessed as trabecula formation surface administered for 90 days by bone histomorphometry; format: functional, organism-based
Rattus norvegicus [36] = experiment: Toxicity in sham operated Sprague-Dawley rat assessed as effect on total protein level at 150 mg/kg/day, po for 90 days; format: organism-based; set-up: route oral; conditions: in vivo, 2160 h
Rattus norvegicus [37] = experiment: Toxicity in sham operated Sprague-Dawley rat assessed as effect on glutamic-pyruvic transaminase level at 150 mg/kg/day, po for 90 days; format: organism-based; set-up: route oral; conditions: in vivo, 2160 h
Rattus norvegicus [38] = experiment: Antiosteoporotic activity in ovariectomized Sprague-Dawley rat assessed as mineral apposition rate at 30 mg/kg/day, po for 90 days by bone histomorphometry; format: functional
Rattus norvegicus [39] = experiment: Antiosteoporotic activity in ovariectomized Sprague-Dawley rat assessed as osteo cortex mineralization rate at 15 mg/kg/day, po for 90 days by bone histomorphometry; format: functional
Rattus norvegicus [40] = experiment: Toxicity in sham operated Sprague-Dawley rat assessed as effect on general behavior at 150 mg/kg/day, po for 90 days; format: organism-based; set-up: route oral; conditions: in vivo, 2160 h
Rattus norvegicus [41] = experiment: Antiosteoporotic activity in ovariectomized Sprague-Dawley rat assessed as trabecula formation surface at 7.5 mg/kg/day, po for 90 days by bone histomorphometry; format: functional
Rattus norvegicus [42] = experiment: Toxicity in sham operated Sprague-Dawley rat assessed as effect on total cholesterol level at 150 mg/kg/day, po for 90 days; format: organism-based; set-up: route oral; conditions: in vivo, 2160 h
Rattus norvegicus [43] = experiment: Antiosteoporotic activity in po dosed ovariectomized Sprague-Dawley rat assessed as osteo cortex mineralization rate administered for 90 days by bone histomorphometry; format: functional, organism-based

CC(=O)c1c[nH]c2ccccc12
Activity [1]: 22.8%

CC(=O)c1cc2cccc(C(F)(F)F)c2s1
Activity [1]: 30.2%

COc1cc2cc(C(C)=O)sc2cc1OC
Activity [1]: 37.1%

CC(=O)c1cc2ccccc2s1
Activity (Rattus norvegicus [2]): Dose-dependent effect
Activity (Rattus norvegicus [3]): 6.64%
Activity (Rattus norvegicus [4]): Non-toxic
Activity (Rattus norvegicus [5]): 3.22 µm/day
Activity (Rattus norvegicus [6]): Non-toxic
Activity (Rattus norvegicus [7]): 5.16%
Activity (Rattus norvegicus [8]): 2.32 µm/day
Activity (Rattus norvegicus [9]): 10.9 µm
Activity (Rattus norvegicus [10]): Non-toxic
Activity (Rattus norvegicus [11]): 2.19 µm/day
Activity (Rattus norvegicus [12]): Non-toxic
Activity (Rattus norvegicus [13]): 6.39%
Activity (Rattus norvegicus [14]): Non-toxic
Activity (Rattus norvegicus [15]): Non-toxic
Activity (Rattus norvegicus [16]): Non-toxic
LD50 [17]: 1580 mg/kg
Activity (Rattus norvegicus [18]): Non-toxic
Activity (Rattus norvegicus [19]): 10.8 µm
Activity (Rattus norvegicus [20]): Non-toxic
Activity (Rattus norvegicus [21]): 7.81%
Activity (Rattus norvegicus [22]): 21.02%
Activity (Rattus norvegicus [23]): 4.74%
Activity (Rattus norvegicus [24]): Non-toxic
Activity (Rattus norvegicus [25]): 3.42 µm/day
Activity (Rattus norvegicus [26]): Dose-dependent effect
Activity (Rattus norvegicus [27]): Dose-dependent effect
Activity (Rattus norvegicus [28]): 19.39%
LD50 [29]: 5000 mg/kg
Activity (Rattus norvegicus [30]): Non-toxic
Activity (Rattus norvegicus [31]): Non-toxic
Activity (Rattus norvegicus [32]): Dose-dependent effect
Activity (Rattus norvegicus [33]): 14.41%
Activity (Rattus norvegicus [34]): 11.4 µm
Activity (Rattus norvegicus [35]): Dose-dependent effect
Activity (Rattus norvegicus [36]): Non-toxic
Activity [1]: 35.6%
Activity (Rattus norvegicus [37]): Non-toxic
Activity (Rattus norvegicus [38]): 2.18 µm/day
Activity (Rattus norvegicus [39]): 3.14 µm/day
Activity (Rattus norvegicus [40]): Non-toxic
Activity (Rattus norvegicus [41]): 7.4%
Activity (Rattus norvegicus [42]): Non-toxic
Activity (Rattus norvegicus [43]): Dose-dependent effect

CC(=O)c1cc2c(Cl)cccc2s1
Activity [1]: 27.9%

CC(=O)c1sc2ccc(C(F)(F)F)cc2c1C
Activity [1]: 16.7%

CC(=O)c1csc2ccccc12
Activity [1]: 11.9%

NNC(=O)c1cc2ccccc2s1
Activity [1]: 7.8%

CC(=O)c1sc2cccc(Cl)c2c1C
Activity [1]: 16.5%

CC(=O)c1cc2c(Cl)ccc(C)c2s1
Activity [1]: 32%
